Reference: US9290488B2, “Azetidine-substituted quinoxalines as opioid receptor like-1 modulators” (priority 2011, dated 2016)
Read-outs that look alike come from different tables or passages of the source.

Legend:
[1] = In vitro assay of free unbound compound (equilibrium dialysis of rat serum); conditions: for Free Unbound Drug Fraction (%): rat serum, 2 μg/mL, 24 h equilibrium dialysis at 37° C. against PBS
[2] = In vitro metabolic stability, human liver microsomes; conditions: % of compound remaining after 30 min incubation at 37° C., 2 μM, 0.5 mg/mL human liver microsomes
[3] = In vitro metabolic stability, rat liver microsomes; conditions: for Metabolic Stability (%) Rat: % of compound remaining after 30 min incubation at 37° C., 2 μM, 0.5 mg/mL rat liver microsomes
[4] = male, Crj:CD (SD), pH 7.4

SMILES: CC[C@@H]1C[C@@H]2C[C@H](C1)C[C@@H](N1[C@@H]3CCC[C@H]1C[C@@H](n1c(=O)c(N4CC[C@H]4C(=O)O)nc4ccccc41)C3)C2 [B20a(ii)]
- Free Unbound Drug Fraction (%) [1]: 3.3%
- free unbound drug fraction, times greater than counterpart d=2 compound ([1]; ratio B20a(ii) / CC02, rat serum): over 2.7 times
- Metabolic Stability (%) Human [2]: 70%
- Metabolic Stability (%) Rat [3]: 84%

SMILES: O=C(O)[C@@H]1CCN1c1nc2ccccc2n([C@H]2C[C@H]3COC[C@@H](C2)N3[C@H]2C[C@@H]3CCC[C@@H](C3)C2)c1=O [C2a(ii)]
- metabolic stability upon exposure to rat liver microsomes, times greater than counterpart d=2 compound [4]: 2.6 times
- Metabolic Stability (%) Human [2]: 67%
- Metabolic Stability (%) Rat [3]: 86%

SMILES: CC12C[C@H]3C[C@@H](N4[C@@H]5COC[C@H]4C[C@@H](n4c(=O)c(N6CC[C@H]6C(=O)O)nc6ccccc64)C5)C[C@@H]1C[C@@H]2C3 [C20a(ii)]
- Metabolic Stability (%) Human [2]: 6.5%
- Metabolic Stability (%) Rat [3]: 62%
- metabolic stability upon exposure to rat liver microsomes, times greater than counterpart d=2 compound ([3]; ratio d=1 compound / d=2 counterpart, rat liver microsomes): over 4.4 times

SMILES: O=C(O)[C@@H]1CCCN1c1nc2ccccc2n([C@H]2C[C@H]3CCC[C@@H](C2)N3[C@H]2C[C@@H]3CCC[C@@H](C3)C2)c1=O [CC01, reference compound]
- Metabolic Stability (%) Rat [3]: 100%

SMILES: CC12C[C@H]3C[C@@H](N4[C@@H]5CCC[C@H]4C[C@@H](n4c(=O)c(N6CCC[C@H]6C(=O)O)nc6ccccc64)C5)C[C@@H]1C[C@@H]2C3 [CC02, reference compound]
- Free Unbound Drug Fraction (%) [1]: 1.2%
- Metabolic Stability (%) Human [2]: 58%
- Metabolic Stability (%) Rat [3]: 97%

SMILES: O=C(O)[C@@H]1CCCN1c1nc2ccccc2n([C@H]2C[C@H]3COC[C@@H](C2)N3[C@H]2C[C@@H]3CCC[C@@H](CC3)C2)c1=O [CC03, reference compound]
- Metabolic Stability (%) Human [2]: 60%
- Metabolic Stability (%) Rat [3]: 33%

SMILES: CC12C[C@H]3C[C@@H](N4[C@@H]5COC[C@H]4C[C@@H](n4c(=O)c(N6CCC[C@H]6C(=O)O)nc6ccccc64)C5)C[C@@H]1C[C@@H]2C3 [CC04, reference compound]
- Metabolic Stability (%) Human [2]: 21%
- Metabolic Stability (%) Rat [3]: 14%
